Laboratory results taken from patent US20090202439A1, “Methods for treatment of angiogenesis” (The Johns Hopkins University, priority 2004, published 2009).
Like-named read-outs stand apart in the source and are kept apart here.

Assays:
[1] = system: HUVECs; experiment: In vitro angiogenesis/tube formation assay in HUVECs; assay type: cell-based, human; settings: for bypass of inhibitory effect of D-PDMP on VEGF induced angiogenesis: HUVECs treated with D-PDMP, then lipid; for reversal of inhibitory effect of PPMP on VEGF induced angiogenesis: then lipid 2.5 μM 4 hrs, GlcCer to a lesser extent than LacCer
Description: (§1) In vitro angiogenesis/tube formation assay—In vitro angiogenesis assay was performed using a commercially available kit from Chemicon Inc (Temecula, Calif.).

[2] = system: PECAM-1; experiment: PECAM-1 protein expression by Western immunoblot in HUVECs; assay type: cell-based, human; settings: for bypass of inhibitory effect of D-PDMP on VEGF induced PECAM-1 protein expression: HUVECs treated with D-PDMP, then lipid; for PECAM-1 expression induced by lipid: 2.5 μM for 4 hrs; for VEGF/LacCer induced PECAM-1: HUVECs pre-treated with NAC, DPI or PDTC; for reversal of inhibitory effect of PPMP on VEGF induced PECAM-1 expression: PPMP 90 min, then lipid 2.5 μM 4 hrs, GlcCer to a lesser extent than LacCer
Description: Cell Culture—Human umbilical vein endothelial cells (HUVEC) and endothelial cells growth medium EGM™ were purchased from Cambrex, (Walkersville, Md.) and were cultured in EGM™ medium supplemented with 10% fetal bovine serum (FBS).
Western Immunoblot Analysis—[…] of protein was resolved by 10% SDS-PAGE and then transferred to nitrocellulose membrane. The membrane-bound primary antibodies were visualized by horseradish peroxidase-conjugated secondary antibody using chemiluminescence kit. The films were then densitometrically scanned using Molecular Dynamics Image Scanner and analyzed using Image Quant software.

[3] = system: GlcCer; settings: HUVECs
[4] = system: LacCer
[5] = system: HUVEC; experiment: Apoptosis in HUVEC; assay type: cell-based, human; settings: D-PDMP 20 μM up to 4-6 hrs, HUVEC (data not shown)
[6] = system: GbOse3Cer; experiment: GbOse3Cer synthesis in HUVECs; assay type: cell-based, human; settings: cells treated with VEGF, with and without D-PDMP (data not shown)
[7] = system: LacCer synthase; settings: previously shown; cited from earlier work
[8] = system: PECAM-1; experiment: PECAM-1 mRNA expression by real-time RT-PCR in HUVECs; assay type: cell-based, human
[9] = system: NF-κB; experiment: Cytosolic NF-κB expression in HUVECs; assay type: cell-based, human; settings: HUVECs pre-treated with NAC, DPI or PDTC
[10] = system: GalT-V; experiment: GalT-V protein expression by immunoblot in siRNA transfected HUVECs; assay type: cell-based, human; settings: siRNA duplex 100 nM, 48 hrs after transfection
Description: Next, 48 hrs after transfection cells were harvested lysed, and GalT-V protein levels were analyzed by immunoblot probed with GalT-V antibody or b-actin, as shown in the figure. GalT-V expression was expressed as % control, when normalized with b-actin expression and the relative quantification values are shown below the immunoblot. (C) HUVECs were transfected with either scrambled GalT-V siRNA (100 nM) or GalT-V siRNA (100 nM). […] The data shown is representative of two identical experiments yielding similar result. […] HUVECs were transfected with siRNA duplexes using Oligofectamine (Invitrogen), following protocol supplied by the manufacturer. Western Immunoblot Analysis-25 g of protein was resolved by 10% SDS-PAGE and then transferred to nitrocellulose membrane. The membrane-bound primary antibodies were visualized by horseradish peroxidase-conjugated secondary antibody using chemiluminescence kit. The films were then densitometrically scanned using Molecular Dynamics Image Scanner and analyzed using Image Quant software.

[11] = system: GalT-V; experiment: LacCer synthase (GalT-V) enzyme activity in siRNA transfected HUVECs; assay type: cell-based, human; settings: siRNA 100 nM, compared with scrambled siRNA treated cells
Description: (C) HUVECs were transfected with either scrambled GalT-V siRNA (100 nM) or GalT-V siRNA (100 nM). 48 hrs post transfection, cells were lysed and Cer synthase enzyme activity was performed as described in “Materials and Methods”. […] HUVECs were transfected with siRNA duplexes using Oligofectamine (Invitrogen), following protocol supplied by the manufacturer.

[12] = system: REN (mt-rhPECAM-1); experiment: In vitro angiogenesis assay in REN cells transfected with human PECAM-1 gene; assay type: cell-based; settings: REN transfected with human PECAM-1 gene, VEGF 25 ng/ml or LacCer 4 hrs, compared with control
Description: (§2) REN (WT) [A] were either stimulated with VEGF (25 ng/ml) [B]; LacCer (2.5 μM) [C] or REN (rhPECAM-1) [D] with VEGF (25 ng/ml) (E) or LacCer [F] for 4 hrs and then in vitro angiogenesis assays were performed as described earlier. Results shown here are from set of experiments performed in triplicate yielding similar results.
(§3) Cell Culture—Human umbilical vein endothelial cells (HUVEC) and endothelial cells growth medium EGM™ were purchased from Cambrex, (Walkersville, Md.) and were cultured in EGM™ medium supplemented with 10% fetal bovine serum (FBS). Human mesoendothelioma cell line [(REN— wild type (WT)] which lacks endogenous PECAM-1 expression and REN (mt-rhPECAM-1) expressing human PECAM-1 was kindly provided by Dr. Steven Albelda, University of Pennsylvania Medical Center, USA. REN-WT was grown in RPMI 1640 supplemented with 101/&FBS. REN (mtrhPECAM-1) was cultured in the same medium with G418 (0.5 g/L Gibco).
as §1

[13] = system: REN (WT) cells; experiment: In vitro angiogenesis assay in REN (WT) cells lacking PECAM-1; assay type: cell-based, human; settings: VEGF 25 ng/ml or LacCer 2.5 μM 4 hrs, compared with 2% FBS treated cells
Description: as §2, §3, §1

[14] = D-PDMP 20 μM for 90 min, then VEGF 25 ng/ml
[15] = CC 5.0 μM, GÖ 6850 and 6976 50 nM, BPB 10 μM, MAFP 3.0 μM, compared with vehicle (DMSO)
[16] = cells treated with increasing concentrations of L-PDMP
[17] = HUVECs pretreated with PPMP 20 μM
[18] = VEGF 25 ng/ml 4 hrs, compared to scrambled siRNA transfected cells
[19] = HUVECs, VEGF 30 ng/ml for 4 hrs

## CCCCCCCCCCCCC/C=C/[C@@H](O)[C@H](CO)NC(C)=O [C2ceramide]
[1]
  bypass of inhibitory effect of D-PDMP on VEGF induced angiogenesis: failed to bypass
[2]
  bypass of inhibitory effect of D-PDMP on VEGF induced PECAM-1 protein expression: failed to bypass
[2]; HUVECs
  PECAM-1 expression induced by lipid: did not induce

## CCCCCCCCCC(=O)N[C@H](CN1CCOCC1)[C@H](O)c1ccccc1 [D-PDMP, (1R,2R)-1-phenyl-2-decanoylamino-3-morpholino-1-propanol]
[3]; D-PDMP 20 μM pretreatment, as early as 10 min
  VEGF induced GlcCer synthesis: inhibited
[4]; HUVECs pretreated with 20 μM D-PDMP, then VEGF 25 ng/ml
  VEGF induced LacCer biosynthesis: mitigated
[5]
  apoptosis: did not induce apoptosis
[6]
  level of GbOse3Cer synthesis: similar
[7]
  action on LacCer synthase: inhibitor of purified LacCer synthase
[8]; [14]
  VEGF induced PECAM-1 mRNA expression: abrogated
[1]; HUVECs, D-PDMP
  VEGF induced angiogenesis: significantly mitigated
[2]; [14]
  VEGF induced PECAM-1 protein expression: abrogated
[2]; HUVECs pre-incubated with D-PDMP 10-30 μM, then VEGF 25 ng/ml 4 hrs
  VEGF-induced PECAM-1 expression: concentration-dependent inhibition

## c1ccc2c(c1)[I+]c1ccccc1-2 [DPI, diphenylene iodonium]
[9]
  VEGF/LacCer induced cytosolic NF-κB expression: significantly blunted
[2]
  VEGF/LacCer induced PECAM-1: significantly blunted

## CN(C)CCCn1cc(C2=C(c3c[nH]c4ccccc34)C(=O)NC2=O)c2ccccc21 [GÖ 6850]
[1]; [15]
  VEGF/LacCer induced tube formation: abrogated
[2]; [15]
  VEGF/LacCer induced PECAM-1 expression: abrogated

## Cn1c2ccccc2c2c3c(c4c5ccccc5n(CCC#N)c4c21)CNC3=O [GÖ 6976]
[1]; [15]
  VEGF/LacCer induced tube formation: abrogated
[2]; [15]
  VEGF/LacCer induced PECAM-1 expression: abrogated

## CCCCCCCCCC(=O)N[C@@H](CN1CCOCC1)[C@@H](O)c1ccccc1 [L-PDMP]
[7]
  action on LacCer synthase: potent activator
[1]; [16]
  angiogenesis: significantly induced
[2]; [16]
  PECAM-1 expression: significantly induced

## CC(=O)N[C@@H](CS)C(=O)O [NAC, N-Acetyl-L-cysteine]
[2]
  VEGF/LacCer induced PECAM-1: significantly blunted

## S=C(S)N1CCCC1 [PDTC, 1-pyrrolidinecarbodithioicacid]
[9]
  VEGF/LacCer induced cytosolic NF-κB expression: significantly blunted
[2]
  VEGF/LacCer induced PECAM-1: significantly blunted

## CCCCCCCCCCCCCCCC(=O)NC(CN1CCOCC1)C(O)c1ccccc1 (centres unmarked) [PPMP]
[1]; [17]
  VEGF induced angiogenesis: mitigation
[2]; [17]
  VEGF induced PECAM-1 expression: mitigation

## CC(C)c1cc(/C=C(\C#N)C(=O)NCCCc2ccccc2)cc(C(C)C)c1O [SU 1498]
[1]; HUVECs pre-treated with SU 1498 1 hr, then LacCer
  LacCer induced tube formation/angiogenesis: not LacCer
[1]; HUVECs pre-treated with SU 1498 1 hr, then VEGF
  VEGF induced tube formation/angiogenesis: failed to induce tube formation/angiogenesis

## GalT-V specific siRNA duplex: siRNA for human GalT-V: 5′-CGG AGU GAG UGG CUU AAC A dTdT-3′ (sense), 5′-UGU UAA GCC ACU CAC UCC G dTdT-3′ (antisense) (sense CGGAGUGAGUGGCUUAACATT; antisense UGUUAAGCCACUCACUCCGTT; chemistry not fully specified)
[10]
  decrease of GalT-V protein expression: ~70%
[11]
  decrease of GalT-V enzyme activity: ~62%
[1]; [18]
  angiogenesis in GalT-V silenced cells treated with VEGF: blunted
[2]; [18]
  PECAM-1 expression in GalT-V silenced cells treated with VEGF: No change

## Lactosylceramide [LacCer]
[12]
  tube formation: induced tube formation
[8]; D-PDMP 20 μM 90 min, then VEGF 25 ng/ml and LacCer 2.5 μM 4 hrs
  bypass of D-PDMP inhibition of PECAM-1 mRNA expression: bypassed
[1]; HUVECs
  reversal of inhibitory effect of PPMP on VEGF induced angiogenesis: reversed
[1]; HUVECs, independent of presence/absence of D-PDMP and VEGF
  induction of angiogenesis: significantly induced
[2]
  bypass of inhibitory effect of D-PDMP on VEGF induced PECAM-1 protein expression: bypassed
[2]; HUVECs
  PECAM-1 expression induced by lipid: significantly induced
  reversal of inhibitory effect of PPMP on VEGF induced PECAM-1 expression: reversed
[13]
  tube formation: failed to form tube-like structures

## Vascular endothelial growth factor [VEGF]
[3]; VEGF 25 ng/ml
  biosynthesis of GlcCer: stimulated
[4]; HUVECs, VEGF 25 ng/ml, time-dependent, from 10 min
  de novo biosynthesis of LacCer: significantly stimulated
[12]
  tube formation: induced tube formation
[8]; HUVECs, VEGF 25 ng/ml, different time points
  time of maximal PECAM-1 mRNA expression: 4 to 5 h
[8]; [19]
  PECAM-1 mRNA expression: Maximal
[8]; HUVECs, VEGF 5-30 ng/ml
  PECAM-1 mRNA expression: dose-dependent increase
[2]; HUVECs, VEGF 25 ng/ml, various time intervals
  time of maximal PECAM-1 protein expression: 4 h
[2]; [19]
  PECAM-1 protein expression: maximal
[13]
  tube formation: failed to form tube-like structures

## bromophenacyl bromide [BPB]
[1]
  VEGF/LacCer induced tube formation: abrogated
[2]
  VEGF/LacCer induced PECAM-1 expression: abrogated

## digalactosylceramide [DGDG]
[1]
  bypass of inhibitory effect of D-PDMP on VEGF induced angiogenesis: failed to bypass
[2]
  bypass of inhibitory effect of D-PDMP on VEGF induced PECAM-1 protein expression: failed to bypass
[2]; HUVECs
  PECAM-1 expression induced by lipid: did not induce

## glucosylceramide [GlcCer]
[1]
  bypass of inhibitory effect of D-PDMP on VEGF induced angiogenesis: failed to bypass
[1]; HUVECs
  reversal of inhibitory effect of PPMP on VEGF induced angiogenesis: also reversed
[2]
  bypass of inhibitory effect of D-PDMP on VEGF induced PECAM-1 protein expression: failed to bypass
[2]; HUVECs
  PECAM-1 expression induced by lipid: did not induce
  reversal of inhibitory effect of PPMP on VEGF induced PECAM-1 expression: also reversed
